Measurements as given in patent US20070281992A1, “COMBINATION OF GYRASE B INHIBITORS AND PROTEIN SYNTHESIS INHIBITORS AND USES THEREOF” (priority 2006, published 2007).
Where two headings read alike, the source gives them in different places.

Legend:
Type in all cases: cell-based
[1] = test system: Methicillin-Resistant Staphylococcus aureus Isolates; assay: MIC assay (NCCLS broth dilution), MRSA clinical isolates; settings: for MIC: read-out: Minimal Inhibitory Concentration
Description: (§1) Antibiotics: novobiocin, tetracycline, minocycline, oxacillin, and vancomycin were all purchased from Sigma-Aldrich. Linezolid was obtained from Pfizer, Inc. Novobiocin/tetracycline and novobiocin/minocycline were tested in a 2.5:1 ratio to mimic the serum levels. (Vavra, J. J., 1967, Development of resistance to novobiocin, tetracycline, and novobiocin-tetracycline combinations in Staphylococcus aureus populations, J. Bacteriol 93(3):801). Compounds were tested across a concentration range consisting of 11 two-fold serial dilutions of test agent.
(§2) Stock solutions were prepared in sterile deionized water; novobiocin stock concentration was 1600 μg/mL and all other drugs stock solutions were prepared at 640 μg/mL. The stock solutions were allowed to sit at room temperature for one hour to auto-sterilize prior to use in the test. All compounds were in solution in water. The control agent was vancomycin hydrochloride, Sigma Chemical Lot # 015K0825.
(§3) The test organisms for the assay were 52 MSSA, 52 MRSA, 8 VISA, 7 VISE, and 3 LRSA isolates. Quality control strains included Staphylococcus aureus 0100 (ATCC 29213) and Enterococcus faecalis (ATCC 29212).
(§4) The MIC assay was performed according to published NCCLS guidelines. (National Committee for Clinical Laboratory Standards, Methods for Dilution Antimicrobial Susceptibility Tests for Bacteria that Grow Aerobically; Approved Standard-Sixth Edition, NCCLS Document M7-A6 [ISBN 1-56238-486-4], NCCLS, 940 West Valley Road, Suite 1400, Wayne, Pa. 19087-1898 USA, 2003). The test medium was Mueller Hinton II Broth for all organisms.

[2] = test system: Unconfirmed Vancomycin-intermediate Staphylococcus aureus Isolates; assay: MIC assay (NCCLS broth dilution), unconfirmed VISA isolates; settings: for MIC: read-out: Minimal Inhibitory Concentration
Description: as §1, §2, §3, §4

[3] = test system: Unconfirmed Vancomycin-intermediate Staphylococcus epidermidis Isolates; assay: MIC assay (NCCLS broth dilution), unconfirmed VISE isolates; settings: for MIC: read-out: Minimal Inhibitory Concentration
Description: as §1, §2, §3, §4

[4] = test system: Vancomycin-intermediate Staphylococcus aureus Isolates; assay: MIC assay (NCCLS broth dilution), VISA isolates; settings: for MIC: read-out: Minimal Inhibitory Concentration
Description: as §1, §2, §3, §4

[5] = test system: Linezolid-Resistant Staphylococcus aureus Isolates; assay: MIC assay (NCCLS broth dilution), LRSA isolates; settings: for MIC: read-out: Minimal Inhibitory Concentration
Description: as §1, §2, §3, §4

[6] = test system: Enterococcus faecalis (ATCC 29212); assay: MIC assay, quality control strain E. faecalis ATCC 29212; settings: ATCC29212, E. faecalis ATCC 29212, repeat runs 22FEB06-09MAR06, combinations at 2.5:1, read-out: Minimal Inhibitory Concentration, quality control
Description: as §1, §2, §3, §4

[7] = test system: Vancomycin-intermediate Staphylococcus epidermidis Isolates; assay: MIC assay (NCCLS broth dilution), VISE isolates; settings: for MIC: read-out: Minimal Inhibitory Concentration
Description: as §1, §2, §3, §4

[8] = Staphylococcus aureus, 52 MRSA isolates, combinations at 2.5:1, given as NB/partner

Structure (SMILES): CN(C)c1ccc(O)c2c1C[C@H]1C[C@H]3[C@H](N(C)C)C(O)=C(C(N)=O)C(=O)[C@@]3(O)C(O)=C1C2=O [MI, minocycline]
- MIC Range ([1]; 52 MRSA isolates, combinations at 2.5:1, given as NB/partner): .06 to .16 µg/mL
- MIC ([1]; Staphylococcus aureus, MRSA isolate 757, 24FEB06): 8 µg/mL
- MIC ([1]; Staphylococcus aureus, MRSA isolate 758, 03MAR06): 0.12 µg/mL
- MIC ([1]; Staphylococcus aureus, MRSA isolate 758, 24FEB06): 0.12 µg/mL
- MIC ([1]; Staphylococcus aureus, MRSA isolate 760, 03MAR06): 0.12 µg/mL
- MIC ([1]; Staphylococcus aureus, MRSA isolate 760, 24FEB06): 0.12 µg/mL
- MIC ([1]; Staphylococcus aureus, MRSA isolate 763, 22FEB06): 0.12 µg/mL
- MIC ([1]; Staphylococcus aureus, MRSA isolate 765, 22FEB06): 0.06 µg/mL
- MIC ([1]; Staphylococcus aureus, MRSA isolate 766, 22FEB06): 0.12 µg/mL
- MIC ([1]; Staphylococcus aureus, MRSA isolate 767, 22FEB06): 0.12 µg/mL
- MIC ([1]; Staphylococcus aureus, MRSA isolate 768, 22FEB06): 0.06 µg/mL
- MIC ([1]; Staphylococcus aureus, MRSA isolate 769, 22FEB06): 0.12 µg/mL
- MIC ([1]; Staphylococcus aureus, MRSA isolate 770, 22FEB06): 0.12 µg/mL
- MIC ([1]; Staphylococcus aureus, MRSA isolate 771, 22FEB06): 0.12 µg/mL
- MIC ([1]; Staphylococcus aureus, MRSA isolate 772, 22FEB06): 0.12 µg/mL
- MIC ([1]; Staphylococcus aureus, MRSA isolate 773, 24FEB06): 0.12 µg/mL
- MIC ([1]; Staphylococcus aureus, MRSA isolate 774, 24FEB06): 0.12 µg/mL
- MIC ([1]; Staphylococcus aureus, MRSA isolate 775, 24FEB06): 0.12 µg/mL
- MIC ([1]; Staphylococcus aureus, MRSA isolate 776, 24FEB06): 0.12 µg/mL
- MIC ([1]; Staphylococcus aureus, MRSA isolate 777, 24FEB06): 0.12 µg/mL
- MIC ([1]; Staphylococcus aureus, MRSA isolate 778, 24FEB06): 0.06 µg/mL
- MIC ([1]; Staphylococcus aureus, MRSA isolate 886, 24FEB06): 0.12 µg/mL
- MIC ([1]; Staphylococcus aureus, MRSA isolate 887, 24FEB06): 0.12 µg/mL
- MIC ([1]; Staphylococcus aureus, MRSA isolate 888, 24FEB06): 0.12 µg/mL
- MIC ([1]; Staphylococcus aureus, MRSA isolate 889, 24FEB06): 0.12 µg/mL
- MIC ([1]; Staphylococcus aureus, MRSA isolate 1004, 24FEB06): 0.12 µg/mL
- MIC ([1]; Staphylococcus aureus, MRSA isolate 1010, 22FEB06): 0.12 µg/mL
- MIC ([1]; Staphylococcus aureus, MRSA isolate 1012, 22FEB06): 0.12 µg/mL
- MIC ([1]; Staphylococcus aureus, MRSA isolate 1013, 22FEB06): 0.12 µg/mL
- MIC ([1]; Staphylococcus aureus, MRSA isolate 1014, 22FEB06): 0.12 µg/mL
- MIC ([1]; Staphylococcus aureus, MRSA isolate 1015, 22FEB06): 0.12 µg/mL
- MIC ([1]; Staphylococcus aureus, MRSA isolate 1016, 22FEB06): 0.12 µg/mL
- MIC ([1]; Staphylococcus aureus, MRSA isolate 1017, 22FEB06): 0.12 µg/mL
- MIC ([1]; Staphylococcus aureus, MRSA isolate 1021, 22FEB06): 0.12 µg/mL
- MIC ([1]; Staphylococcus aureus, MRSA isolate 1022, 22FEB06): 0.12 µg/mL
- MIC ([1]; Staphylococcus aureus, MRSA isolate 1023, 22FEB06): 0.12 µg/mL
- MIC ([1]; Staphylococcus aureus, MRSA isolate 1024, 22FEB06): 0.12 µg/mL
- MIC ([1]; Staphylococcus aureus, MRSA isolate 1025, 22FEB06): 0.12 µg/mL
- MIC ([1]; Staphylococcus aureus, MRSA isolate 1135, 22FEB06): 0.12 µg/mL
- MIC ([1]; Staphylococcus aureus, MRSA isolate 1136, 22FEB06): 0.12 µg/mL
- MIC ([1]; Staphylococcus aureus, MRSA isolate 1137, 22FEB06): 0.12 µg/mL
- MIC ([1]; Staphylococcus aureus, MRSA isolate 1138, 22FEB06): 0.12 µg/mL
- MIC ([1]; Staphylococcus aureus, MRSA isolate 1222, 03MAR06): 0.06 µg/mL
- MIC ([1]; Staphylococcus aureus, MRSA isolate 1222, 24FEB06): 0.12 µg/mL
- MIC ([1]; Staphylococcus aureus, MRSA isolate 1653, 03MAR06): 0.06 µg/mL
- MIC ([1]; Staphylococcus aureus, MRSA isolate 1658, 03MAR06): 0.06 µg/mL
- MIC ([1]; Staphylococcus aureus, MRSA isolate 1659, 03MAR06): 0.06 µg/mL
- MIC ([1]; Staphylococcus aureus, MRSA isolate 1661, 03MAR06): 0.12 µg/mL
- MIC ([1]; Staphylococcus aureus, MRSA isolate 1729, 03MAR06): 16 µg/mL
- MIC ([1]; Staphylococcus aureus, MRSA isolate 1730, 24FEB06): 0.12 µg/mL
- MIC ([1]; Staphylococcus aureus, MRSA isolate 2009, 24FEB06): 1 µg/mL
- MIC ([1]; Staphylococcus aureus, MRSA isolate 2010, 24FEB06): 0.12 µg/mL
- MIC ([1]; Staphylococcus aureus, MRSA isolate 2011, 24FEB06): 0.12 µg/mL
- MIC50 [1, 8]: 0.12 µg/mL
- MIC90 [1, 8]: 0.12 µg/mL
- MIC Range ([2]; 6 unconfirmed VISA isolates (vancomycin MIC 4 ug/ml), combinations at 2.5:1): ≦.015-2 μg/ml
- MIC ([2]; Staphylococcus aureus, Unconfirmed VISA isolate 2013, 03MAR06): 0.12 µg/mL
- MIC ([2]; Staphylococcus aureus, Unconfirmed VISA isolate 2014, 03MAR06): 2 µg/mL
- MIC ([2]; Staphylococcus aureus, Unconfirmed VISA isolate 2015, 03MAR06): < 0.015 µg/mL
- MIC ([2]; Staphylococcus aureus, Unconfirmed VISA isolate 2016, 03MAR06): 0.06 µg/mL
- MIC ([2]; Staphylococcus aureus, Unconfirmed VISA isolate 2017, 03MAR06): 0.03 µg/mL
- MIC ([2]; Staphylococcus aureus, Unconfirmed VISA isolate 2019, 03MAR06): 2 µg/mL
- MIC50 ([2]; Staphylococcus aureus, 6 unconfirmed VISA isolates (vancomycin MIC 4 ug/ml), combinations at 2.5:1): 0.06 µg/mL
- MIC Range ([3]; 3 unconfirmed VISE isolates, combinations at 2.5:1): 0.12 to 0.25 µg/mL
- MIC ([3]; Staphylococcus epidermidis, Unconfirmed VISE isolate 2024, 09MAR06): 0.25 µg/mL
- MIC ([3]; Staphylococcus epidermidis, Unconfirmed VISE isolate 2025, 09MAR06): 0.12 µg/mL
- MIC ([3]; Staphylococcus epidermidis, Unconfirmed VISE isolate 2026, 03MAR06): 0.25 µg/mL
- MIC50 ([3]; Staphylococcus epidermidis, 3 unconfirmed VISE isolates, combinations at 2.5:1): 0.25 µg/mL
- MIC Range ([4]; 2 VISA isolates, combinations at 2.5:1, given as NB/partner): .06 to 25 µg/mL
- MIC ([4]; Staphylococcus aureus, VISA isolate 2012, 03MAR06): 0.25 µg/mL
- MIC ([4]; Staphylococcus aureus, VISA isolate 2018, 03MAR06): 0.06 µg/mL
- MIC50 ([4]; Staphylococcus aureus, 2 VISA isolates, combinations at 2.5:1, given as NB/partner): 0.06 µg/mL
- MIC Range ([5]; 3 LRSA isolates, combinations at 2.5:1): 0.12 to 2 µg/mL
- MIC ([5]; Staphylococcus aureus, LRSA isolate 1651, 24FEB06): 0.12 µg/mL
- MIC ([5]; Staphylococcus aureus, LRSA isolate 1652, 24FEB06): 0.12 µg/mL
- MIC ([5]; Staphylococcus aureus, LRSA isolate 1725, 24FEB06): 2 µg/mL
- MIC50 ([5]; Staphylococcus aureus, 3 LRSA isolates, combinations at 2.5:1): 0.12 µg/mL
- MIC [6]: 2 µg/mL
- MIC Range ([7]; 4 VISE isolates, combinations at 2.5:1): .06 to .25 µg/mL
- MIC ([7]; Staphylococcus epidermidis, VISE isolate 2020, 09MAR06): 0.12 µg/mL
- MIC ([7]; Staphylococcus epidermidis, VISE isolate 2021, 09MAR06): 0.06 µg/mL
- MIC ([7]; Staphylococcus epidermidis, VISE isolate 2022, 03MAR06): 0.25 µg/mL
- MIC ([7]; Staphylococcus epidermidis, VISE isolate 2023, 03MAR06): 0.06 µg/mL
- MIC50 ([7]; Staphylococcus epidermidis, 4 VISE isolates, combinations at 2.5:1): 0.06 µg/mL
